Source: ChEMBL document CHEMBL1201862, “PubChem BioAssay data set” (2004)
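Growth conditions: 96-well plates. Treatment: test compound, 48 hours, 5 concentrations. Analysis: linear interpolation between bracketing concentrations; unreached endpoints set to highest concentration. GI50: concentration for 50% inhibition of growth.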 Active and inactive are the calls of the source. Cut-off read from the data, not from the text of the source: active = GI50 up to about 1.1 µM and inactive = higher.

Assays:
Assay in all cases: NCI-60 cell line screen, 48 h
SF-539 = test system: SF-539
A549 = test system: A549
HCC 2998 = test system: HCC 2998
SR = test system: SR
SF-268 = test system: SF-268
SK-MEL-5 = test system: SK-MEL-5
HOP-92 = test system: HOP-92
HOP-62 = test system: HOP-62
UACC-62 = test system: UACC-62
OVCAR-3 = test system: OVCAR-3
UO-31 = test system: UO-31
NCI-H226 = test system: NCI-H226
HCT-15 = test system: HCT-15
HCT-116 = test system: HCT-116
A498 = test system: A498
KM12 = test system: KM12
MCF7 = test system: MCF7
MDA-MB-435 = test system: MDA-MB-435
PC-3 = test system: PC-3

O=C(CC(O)(c1ccccc1)c1ccc(Cl)cc1)NC(=O)c1ccccc1O (stereo unspecified)
GI50 (SF-539): 11.6 µM (inactive) | GI50 (A549): 8.07 µM (inactive) | GI50 (HCC 2998): 4.99 µM (inactive) | GI50 (SR): 11.6 µM (inactive) | GI50 (SF-268): 7.28 µM (inactive) | GI50 (SK-MEL-5): 6.52 µM (inactive) | GI50 (HOP-92): 2.13 µM (inactive) | GI50 (HOP-62): 6.52 µM (inactive) | GI50 (UACC-62): 6.04 µM (inactive) | GI50 (OVCAR-3): 4.36 µM (inactive) | GI50 (UO-31): 2.42 µM (inactive) | GI50 (NCI-H226): 7.87 µM (inactive) | GI50 (HCT-15): 4.12 µM | GI50 (HCT-116): 11.7 µM (inactive) | GI50 (A498): 1.95 µM (inactive) | GI50 (KM12): 3.86 µM (inactive)

CCOP(=O)(OCC)OC1CC(n2cc(C)c(=O)n(C)c2=O)OC1CO[Si](C)(C)C(C)(C)C (stereo unspecified)
GI50 (SF-539): > 100 µM (inactive) | GI50 (MCF7): 73.1 µM (inactive) | GI50 (A549): 55.1 µM (inactive) | GI50 (MDA-MB-435): > 100 µM (inactive) | GI50 (HCC 2998): 62.4 µM (inactive) | GI50 (SR): 37.7 µM (inactive) | GI50 (SF-268): > 100 µM (inactive) | GI50 (SK-MEL-5): 58.9 µM (inactive) | GI50 (HOP-62): 79.6 µM (inactive) | GI50 (PC-3): 29.1 µM (inactive) | GI50 (UACC-62): > 100 µM (inactive) | GI50 (OVCAR-3): > 100 µM (inactive) | GI50 (UO-31): 2.9 µM (inactive) | GI50 (NCI-H226): > 100 µM (inactive) | GI50 (HCT-15): > 100 µM | GI50 (HCT-116): 40.8 µM (inactive) | GI50 (KM12): 75.2 µM (inactive)

CCOC(=O)CCC1(CCC(=O)OCC)CCCCCCCCC(CCC(=O)OCC)(CCC(=O)OCC)C(=O)C1=O
GI50 (SF-539): > 100 µM (inactive) | GI50 (MCF7): > 100 µM (inactive) | GI50 (A549): > 100 µM (inactive) | GI50 (MDA-MB-435): > 100 µM (inactive) | GI50 (HCC 2998): > 100 µM (inactive) | GI50 (SR): > 100 µM (inactive) | GI50 (SF-268): > 100 µM (inactive) | GI50 (SK-MEL-5): > 100 µM (inactive) | GI50 (HOP-92): > 100 µM (inactive) | GI50 (HOP-62): > 100 µM (inactive) | GI50 (PC-3): > 100 µM (inactive) | GI50 (UACC-62): > 100 µM (inactive) | GI50 (OVCAR-3): > 100 µM (inactive) | GI50 (NCI-H226): > 100 µM (inactive) | GI50 (HCT-15): > 100 µM | GI50 (HCT-116): > 100 µM (inactive) | GI50 (A498): > 100 µM (inactive) | GI50 (KM12): > 100 µM (inactive)

CCCCCCCCOCC(O)CO (stereo unspecified)
GI50 (SF-539): > 100 µM (inactive) | GI50 (A549): > 100 µM (inactive) | GI50 (HCC 2998): 89.5 µM (inactive) | GI50 (SR): 45.9 µM (inactive) | GI50 (SF-268): > 100 µM (inactive) | GI50 (SK-MEL-5): > 100 µM (inactive) | GI50 (HOP-92): 41.8 µM (inactive) | GI50 (HOP-62): > 100 µM (inactive) | GI50 (UACC-62): > 100 µM (inactive) | GI50 (OVCAR-3): > 100 µM (inactive) | GI50 (UO-31): > 100 µM (inactive) | GI50 (NCI-H226): 84.9 µM (inactive) | GI50 (HCT-15): > 100 µM | GI50 (HCT-116): > 100 µM (inactive) | GI50 (A498): > 100 µM (inactive) | GI50 (KM12): 29.5 µM (inactive)

O=c1c(Cl)c(Cl)cnn1CCc1ccncc1
GI50 (SF-539): 21.5 µM (inactive) | GI50 (A549): 37.9 µM (inactive) | GI50 (HCC 2998): 14.5 µM (inactive) | GI50 (SR): 20.8 µM (inactive) | GI50 (SF-268): 20.6 µM (inactive) | GI50 (SK-MEL-5): 16.1 µM (inactive) | GI50 (HOP-92): 20.4 µM (inactive) | GI50 (HOP-62): 18.3 µM (inactive) | GI50 (UACC-62): 20.8 µM (inactive) | GI50 (OVCAR-3): 17.6 µM (inactive) | GI50 (UO-31): 20.8 µM (inactive) | GI50 (NCI-H226): 29.4 µM (inactive) | GI50 (HCT-15): 16.4 µM | GI50 (HCT-116): 16.6 µM (inactive) | GI50 (A498): 21.6 µM (inactive) | GI50 (KM12): 12.5 µM (inactive)

CC(C)(CN1CCCCC1)C(=O)/C=C/c1ccc(Cl)cc1
GI50 (SF-539): 2.23 µM (inactive) | GI50 (A549): 3.42 µM (inactive) | GI50 (HCC 2998): 13.2 µM (inactive) | GI50 (SR): 2.58 µM (inactive) | GI50 (SF-268): 3.34 µM (inactive) | GI50 (SK-MEL-5): 3.08 µM (inactive) | GI50 (HOP-92): 1.6 µM (inactive) | GI50 (HOP-62): > 10 µM (inactive) | GI50 (UACC-62): 5.35 µM (inactive) | GI50 (OVCAR-3): 2.77 µM (inactive) | GI50 (UO-31): 7.5 µM (inactive) | GI50 (NCI-H226): 4.41 µM (inactive) | GI50 (HCT-15): 2.65 µM | GI50 (HCT-116): 3.4 µM (inactive) | GI50 (A498): 2.73 µM (inactive) | GI50 (KM12): 2.95 µM (inactive)

CCCCCCCCCCCCCCCCCC(=O)OCC(C[As](=O)(O)O)OC(=O)CCCCCCCCCCCCCCCCC (stereo unspecified)
GI50 (SF-539): 32.6 µM (inactive) | GI50 (A549): > 100 µM (inactive) | GI50 (HCC 2998): > 100 µM (inactive) | GI50 (SR): 18.4 µM (inactive) | GI50 (SF-268): 43.2 µM (inactive) | GI50 (SK-MEL-5): > 100 µM (inactive) | GI50 (HOP-92): 11.4 µM (inactive) | GI50 (HOP-62): 24.4 µM (inactive) | GI50 (UACC-62): > 100 µM (inactive) | GI50 (OVCAR-3): 60.4 µM (inactive) | GI50 (UO-31): > 100 µM (inactive) | GI50 (NCI-H226): 24.4 µM (inactive) | GI50 (HCT-15): 38.4 µM | GI50 (HCT-116): 60.1 µM (inactive) | GI50 (A498): > 100 µM (inactive) | GI50 (KM12): > 100 µM (inactive)

Cc1ccc(O)c(C2=NNC(c3cccc(Br)c3)C2)c1 (stereo unspecified)
GI50 (SF-539): 74.1 µM (inactive) | GI50 (MCF7): 33.8 µM (inactive) | GI50 (A549): 44.5 µM (inactive) | GI50 (MDA-MB-435): 19.8 µM (inactive) | GI50 (HCC 2998): 60.8 µM (inactive) | GI50 (SR): 27.8 µM (inactive) | GI50 (SF-268): 71 µM (inactive) | GI50 (SK-MEL-5): 71.3 µM (inactive) | GI50 (HOP-92): 15.4 µM (inactive) | GI50 (HOP-62): 86.3 µM (inactive) | GI50 (PC-3): 45.8 µM (inactive) | GI50 (UACC-62): 35.7 µM (inactive) | GI50 (OVCAR-3): 62.2 µM (inactive) | GI50 (UO-31): 51.5 µM (inactive) | GI50 (NCI-H226): 71.6 µM (inactive) | GI50 (HCT-15): 11.5 µM | GI50 (HCT-116): 40.4 µM (inactive) | GI50 (KM12): 63.4 µM (inactive)

CC(C)C1(O)C(c2ccccc2)=C(c2ccccc2)C(c2ccccc2)=C1c1ccccc1
GI50 (SF-539): 12.5 µM (inactive) | GI50 (A549): 6.76 µM (inactive) | GI50 (HCC 2998): 8.69 µM (inactive) | GI50 (SR): 2.96 µM (inactive) | GI50 (SF-268): 4.49 µM (inactive) | GI50 (SK-MEL-5): 10.6 µM (inactive) | GI50 (HOP-92): 4.38 µM (inactive) | GI50 (HOP-62): 12.1 µM (inactive) | GI50 (UACC-62): 7.59 µM (inactive) | GI50 (OVCAR-3): 4.71 µM (inactive) | GI50 (UO-31): 2.46 µM (inactive) | GI50 (NCI-H226): 7.26 µM (inactive) | GI50 (HCT-15): 5.22 µM | GI50 (HCT-116): 3.61 µM (inactive) | GI50 (A498): 15.2 µM (inactive) | GI50 (KM12): 4.9 µM (inactive)

CCN(CC)CCC1(C(=O)OC)SCCc2ccc(C)cc21 (stereo unspecified)
GI50 (SF-539): > 100 µM (inactive) | GI50 (MCF7): > 100 µM (inactive) | GI50 (A549): > 100 µM (inactive) | GI50 (MDA-MB-435): > 100 µM (inactive) | GI50 (HCC 2998): > 100 µM (inactive) | GI50 (SR): > 100 µM (inactive) | GI50 (SF-268): > 100 µM (inactive) | GI50 (SK-MEL-5): > 100 µM (inactive) | GI50 (HOP-92): > 100 µM (inactive) | GI50 (HOP-62): > 100 µM (inactive) | GI50 (PC-3): > 100 µM (inactive) | GI50 (UACC-62): > 100 µM (inactive) | GI50 (OVCAR-3): > 100 µM (inactive) | GI50 (UO-31): > 100 µM (inactive) | GI50 (NCI-H226): > 100 µM (inactive) | GI50 (HCT-15): > 100 µM | GI50 (HCT-116): > 100 µM (inactive) | GI50 (A498): > 100 µM (inactive) | GI50 (KM12): > 100 µM (inactive)

O=C(c1ccc(Br)cc1)n1c2ccc(Br)cc2c2nc3ccccc3nc21
GI50 (SF-539): > 100 µM (inactive) | GI50 (MCF7): > 100 µM (inactive) | GI50 (MDA-MB-435): > 100 µM (inactive) | GI50 (HCC 2998): > 100 µM (inactive) | GI50 (SR): 83.2 µM (inactive) | GI50 (SF-268): > 100 µM (inactive) | GI50 (SK-MEL-5): > 100 µM (inactive) | GI50 (HOP-92): > 100 µM (inactive) | GI50 (HOP-62): > 100 µM (inactive) | GI50 (PC-3): > 100 µM (inactive) | GI50 (UACC-62): > 100 µM (inactive) | GI50 (OVCAR-3): > 100 µM (inactive) | GI50 (UO-31): > 100 µM (inactive) | GI50 (NCI-H226): > 100 µM (inactive) | GI50 (HCT-15): > 100 µM | GI50 (HCT-116): > 100 µM (inactive) | GI50 (KM12): > 100 µM (inactive)

CN(C)CCC1(C2=CCCC2)CC/C(=C\c2ccc(Cl)cc2)C1=O (stereo unspecified)
GI50 (SF-539): 12.7 µM (inactive) | GI50 (A549): 12.4 µM (inactive) | GI50 (HCC 2998): 7.82 µM (inactive) | GI50 (SR): 4.51 µM (inactive) | GI50 (SF-268): 11.8 µM (inactive) | GI50 (SK-MEL-5): 1.99 µM (inactive) | GI50 (HOP-92): 3.89 µM (inactive) | GI50 (HOP-62): 16.9 µM (inactive) | GI50 (UACC-62): 3.08 µM (inactive) | GI50 (OVCAR-3): 13.7 µM (inactive) | GI50 (UO-31): 5.33 µM (inactive) | GI50 (NCI-H226): 14.2 µM (inactive) | GI50 (HCT-15): 5.07 µM | GI50 (HCT-116): 8.77 µM (inactive) | GI50 (A498): 6.25 µM (inactive) | GI50 (KM12): 9.91 µM (inactive)
